Values joined by “and” are separate entries in the source; they are usually repeats but may differ in a detail not shown here. Equal values may be shown once.
Legend:
[1] = Crystal, Calculated from knudsen effusion weight loss
[2] = molar enthalpy of vaporization or sublimation; settings: Crystal, Static calorimetry

O=C1CCCCCN1 [1-aza-2-cycloheptanone]
Settings	molar enthalpy [kJ/mol]	vapor or sublimation pressure
[1], 293.7 K	–	0.0001506 kPa and 0.0001518 kPa and 0.0001508 kPa
[1], 295.7 K	–	0.0001889 kPa and 0.000183 kPa and 0.000182 kPa
[1], 296.6 K	–	0.0002196 kPa and 0.0002191 kPa and 0.0002211 kPa
[1], 298.19 K	–	0.0002627 kPa and 0.0002587 kPa and 0.0002716 kPa
[1], 299.67 K	–	0.0003254 kPa and 0.0003117 kPa and 0.0003173 kPa
[1], 301.1 K	–	0.0003753 kPa and 0.0003757 kPa and 0.0003791 kPa
[1], 302.69 K	–	0.0004428 kPa and 0.0004363 kPa and 0.0004403 kPa
[1], 304.15 K	–	0.0005432 kPa and 0.0005228 kPa and 0.0005341 kPa
[1], 305.59 K	–	0.0006305 kPa and 0.0006272 kPa and 0.0006374 kPa
[1], 307.18 K	–	0.0007318 kPa and 0.0007265 kPa and 0.0007404 kPa
[1], 308.66 K	–	0.0008828 kPa and 0.0009064 kPa and 0.0008695 kPa
[1], 310.1 K	–	0.001048 kPa and 0.001045 kPa and 0.001038 kPa
[2], 350.03 K	87.6	–

S=C1CCCCCN1 [azepane-2-thione]
Settings	molar enthalpy [kJ/mol]	vapor or sublimation pressure
[1], 318.18 K	–	9.46e-05 kPa and 9.18e-05 kPa and 9.11e-05 kPa
[1], 320.16 K	–	0.0001201 kPa and 0.0001211 kPa and 0.0001173 kPa
[1], 322.08 K	–	0.0001485 kPa and 0.0001484 kPa and 0.0001469 kPa
[1], 324.2 K	–	0.0001813 kPa and 0.0001821 kPa and 0.0001901 kPa
[1], 326.15 K	–	0.0002346 kPa and 0.0002296 kPa and 0.0002407 kPa
[1], 328.08 K	–	0.0002879 kPa and 0.0002891 kPa and 0.0002869 kPa
[1], 330.18 K	–	0.0003569 kPa and 0.0003533 kPa and 0.0003704 kPa
[1], 332.12 K	–	0.0004537 kPa and 0.0004424 kPa and 0.0004677 kPa
[1], 334.07 K	–	0.0005566 kPa and 0.0005557 kPa and 0.0005502 kPa
[1], 336.18 K	–	0.0006862 kPa and 0.0006759 kPa and 0.0007079 kPa
[1], 338.15 K	–	0.000897 kPa and 0.0008658 kPa and 0.0008434 kPa
[1], 340.08 K	–	0.001048 kPa and 0.001057 kPa and 0.001058 kPa
[2], 386.11 K	98.2	–
